In PMC9402926, “Synthetic short-chain peptide analogues of H1 relaxin lack affinity for the RXFP1 receptor and relaxin-like bioactivity. Clues to a better understanding of relaxin agonist design” (Frontiers in Pharmacology, 2022):

Experiments:
[1] = biological target: RXFP1-BP (ectodomain of human RXFP1 fused to the single transmembrane and cytoplasmic region of CD8); assay: competition binding with europium-labelled ligand on whole cells; whole cells in 96 well plates; HEK-293T stably expressing RXFP1-BP; single concentration of europium-labeled H2 relaxin (1 nm as printed) with or without increasing concentrations of the competing peptides; non-specific binding with 1 µM serelaxin; triplicates, 2 independent experiments; one site binding model
[2] = test system: RXFP1-BP (ectodomain of human RXFP1 fused to the single transmembrane and cytoplasmic region of CD8); assay: Competition binding with europium-labelled H2 relaxin in HEK-293T cells stably expressing RXFP1-BP; conditions: 10 µM competing peptide; 1 nm europium-labeled H2 relaxin; whole cells, 96 well plates; triplicate points, 2 independent experiments
Source text: Cell culture for ligand-receptor binding assays—Human embryonic kidney cells (HEK-293T) stably expressing RXFP1-BP ([Halls et al., 2005]) were used for competition binding experiments using europium-labelled H2 relaxin, as described ([Shabanpoor et al., 2012]). This construct contains the ectodomain of human RXFP1 fused to the single transmembrane and cytoplasmic region of CD8. This ectodomain-only construct has a higher affinity for single chain H2 relaxin peptides and is used as a surrogate assay for binding affinity. Assays were performed in whole cell 96 well plates assays with a single concentration of the europium-labeled H2 relaxin (1 nm) in the presence or absence of increasing concentrations of the competing peptides. Non-specific binding was assessed using 1 µM of serelaxin. Each concentration point was assessed in triplicate in 2 independent experiments. The binding data were analyzed using GraphPad Prism 9 and expressed as mean ± SEM. They were fitted using a one site binding model.

RXFP1 [3] = assay: ERK1/2 phosphorylation in TGF-β1-induced myofibroblasts from NIH-3T3 fibroblasts expressing RXFP1, Western blot; type: cell-based; conditions: mouse myofibroblasts (TGF-β 48 h), 30 and 90 min, 3 independent experiments
Experimental: Cell culture for ERK1/2 phosphorylation assay - The RXFP1 downstream ERK1/2 phosphorylation pathway was tested on myofibroblasts using a method based on that described by [Hossain et al. (2016)], with minor modifications. Mouse NIH-3T3 fibroblasts (ATCC, Manassas, VA, United States) expressing RXFP1 ([Sassoli et al., 2013]) were cultured in DMEM supplemented with 10% fetal bovine serum (FBS), 2 mm glutamine, 250 U/ml penicillin G and 250 μg/ml streptomycin, in a humidified atmosphere with 5% CO2 at 37°C. They were induced to myofibroblasts in DMEM containing 2% FBS and 2 ng/ml human TGF-β1 (PeproTech, Rocky Hill, NJ, United States) for 12, 24, 48 and 72 h ([Sassoli et al., 2013]). Myofibroblasts were then incubated for 30 or 90 min with either serelaxin (17 nM), or B7-33 (1.7 μM), or the H1 peptides 6 and 7 (1.7 μM), selected among those which had shown a minimal ability to bind RXFP1 in the competition binding experiments. Untreated myofibroblasts were used as controls. To verify fibroblast-to-myofibroblast transition and ERK1/2 phosphorylation, cells were lysed in cold buffer composed of (mM): 10 Tris/HCl pH 7.4, 10 NaCl, 1.5 MgCl2, 2 Na2EDTA, 1% Triton X-100, added with 10x Sigmafast Protease Inhibitor Cocktail tablets and […] Na3VO4 to inhibit endogenous phosphatases. Total protein content was measured spectrophotometrically using micro-BCA Protein Assay Kit (Pierce). Sixty μg of total proteins were electrophoresed by SDS–PAGE and blotted onto PVDF membranes (Millipore, Bedford, MA, United States). […] Specific bands were detected using appropriate peroxidase-labeled secondary antibodies (1:15,000; Vector, Burlingame, CA, United States) and enhanced chemiluminescent substrate (ECL, Sigma-Aldrich). […]

RXFP1 [4] = assay: cAMP generation in human monocytic THP-1 cells (RXFP1 downstream pathway), Direct cAMP ELISA; type: cell-based; conditions: serelaxin 17 nm, 15 min, IBMX 100 μM, 3 independent experiments
Experimental: Cell culture for cAMP assay—The RXFP1 downstream cAMP pathway was tested on human monocytic THP-1 cells (ECACC, Salisbury, UK) cultured in suspension in RPMI medium containing 10% foetal bovine serum, 0.05 mm 2-mercaptoethanol, 250 U/ml penicillin G and 250 μg/ml streptomycin, in a 5% CO2 atmosphere at 37°C. Cells (5 × 10^5) were placed in a 24-well plate, added with IBMX (100 μM) to prevent cAMP catabolism and then incubated with the different stimulants. As positive controls, either serelaxin (17 nm) and B7-33 (17, 170, 1700 nm) were used. The H1 peptides 4, 6 and 7, selected among those which had shown a minimal ability to bind RXFP1 in the competition binding experiments, were also used at 17, 170 and 1700 nm final concentration. The cAMP assay was carried out 15 min after RXFP1 stimulation, coinciding with the second sustained cAMP surge ([Nguyen et al., 2003]; [Bani et al., 2007]). The adenylate cyclase activator forskolin (100 μM) was used to determine the maximal cAMP levels. Triplicate cAMP measurements were performed by a Direct cAMP ELISA Kit (Enzo, Milan, Italy). […] The values of cAMP were normalized by the amount of proteins, measured by the micro-BCA Protein Assay Kit (Pierce, IL, United States) and expressed as mg/ml. For statistical purposes, 3 independent experiments were performed.

[5] = i.v. administration; ref Chen et al., 1993; cited from earlier work
Experimental: Since recombinant human H2 relaxin (RLX), later termed serelaxin, was made available as clinical-grade drug ([Stults et al., 1990]), several clinical trials have been performed to explore its therapeutic potential, particularly as cardiovascular and anti-fibrotic agent ([Bani 2020]; [Samuel and Bennett 2021]; [Sassoli et al., 2022]). The last RELAX-AHF-2 phase III trial was performed under the auspices of Novartis Europharm Ltd., owner of the serelaxin patent, to assess its efficacy in patients with heart failure. Regrettably, in spite of encouraging theoretical premises and pre-clinical evide ...

| Substance | percent competition of Eu-H2 relaxin binding at 10 µM [1] [%] | competition of Eu-H2 relaxin binding [2] [%] | ERK1/2 phosphorylation (RXFP1 [3]; peptide 1.7 μM) | other results |
| --- | --- | --- | --- | --- |
| [Ser10,22]Cyclo[LysN3 17, Pra21]H1RLXB(1-23) (peptide) | 20 | – | – | – |
| [Ser10,22]Cyclo[Pra17, LysN3 21]H1RLXB(1-23) (peptide) | 20 | – | – | – |
| [Ser^10,22]Cyclo[LysN3 ^17, Pra^21]H1RLXB(1–23) [compound 7] | – | ~20 | neither of the H1 peptides 6 and 7 were capable of reproducing the effects of the authentic hormone | – |
| [Ser^10,22]Cyclo[Pra^14, LysN3 ^18]H1RLXB(1–23) [compound 4] | – | ~20 | – | – |
| [Ser^10,22]Cyclo[Pra^17, LysN3 ^21]H1RLXB(1–23) [compound 6] | – | ~20 | neither of the H1 peptides 6 and 7 were capable of reproducing the effects of the authentic hormone | – |
| serelaxin | – | – | – | elevation of cAMP (RXFP1 [4]): statistically significant elevation of cAMP; ERK1/2 phosphorylation (RXFP1 [3]; serelaxin 17 nM): statistically significant increase in ERK1/2 phosphorylation; half-life [5]: ~2 h |
